This is an account of results in ChEMBL document CHEMBL4177741, “NOTA analogue: A first dithiocarbamate inhibitor of metallo-β-lactamases” (Bioorg Med Chem Lett, 2018).

≈ marks a conversion by molar mass, not a printed value. Calls of active or inactive are those of the source. The rule behind the calls is not given here.

Data set [1] has as its system Proteus mirabilis. To be noted: 64 ug/ml.
Description: (§2) Inhibition of NDM1 in Proteus mirabilis clinical isolates assessed as potentiation of meropenem-induced antibacterial activity by measuring meropenem MIC at 64 ug/ml incubated for 16 to 18 hrs by broth microdilution method
In data set [2] the test system is Escherichia coli. Kind of data set: Potentiation of meropenem-induced antibacterial activity in Escherichia coli expressing NDM1 assessed as meropenem inhibition zone incubated for 16 to 18 hrs by CLSI protocol based disc diffusion method (reference value: 10.76 mm). Format: functional. For orientation: A growth-free zone around the sample is the usual read-out of agar diffusion tests.

In data set [3] the test system is Proteus mirabilis. To be noted: 64 ug/ml. The source holds these as a separate data set.
Description: as §2
The nature of data set [4]: Cytotoxicity in human HeLa cells assessed as inhibition of cell growth at 1000 ug/ml incubated for 24 hrs by CCK8 assay. To be noted: read-out: GI. It is filed as cell-based. In general terms: Formazan colour is commonly taken as a measure of viable cells.
The subject of data set [5] is Citrobacter freundii. The note with it: 64 ug/ml.
Description: Inhibition of NDM1 in Citrobacter freundii clinical isolates assessed as potentiation of meropenem-induced antibacterial activity by measuring meropenem MIC at 64 ug/ml incubated for 16 to 18 hrs by broth microdilution method
In data set [6] the test system is HeLa. Kind of data set: Cytotoxicity in human HeLa cells assessed as inhibition of cell growth at 128 ug/ml incubated for 24 hrs by calcein AM and propidium iodide staining based fluorescence microscopy.
In data set [7] the test system is HeLa. Nature of the data set: Cytotoxicity in human HeLa cells assessed as inhibition of cell growth at 64 ug/ml incubated for 24 hrs by calcein AM and propidium iodide staining based fluorescence microscopy.
The subject of another data set is Erythrocyte. Kind of data set: Hemolytic activity in sheep RBCs at 10000 ug/ml incubated for 1 hr. Format: ADME, cell-based, Ovis aries.
Data set [8] concerns Proteus mirabilis. Nature of the data set: (§1) Inhibition of NDM1 in Proteus mirabilis clinical isolates assessed as potentiation of meropenem-induced antibacterial activity by measuring meropenem MIC at 32 ug/ml incubated for 16 to 18 hrs by broth microdilution method. On the technique in general: Dilution methods test growth across graded concentrations, often in twofold steps.

Data set [9] deals with Proteus mirabilis. The data set is described as §1. The source holds these as a separate data set.
In data set [10] the test system is Citrobacter freundii. Kind of data set: Inhibition of NDM1 in Citrobacter freundii clinical isolates assessed as potentiation of meropenem-induced antibacterial activity by measuring meropenem MIC at 32 ug/ml incubated for 16 to 18 hrs by broth microdilution method.
In data set [11] the test system is Escherichia coli. Nature of the data set: Effect on cell growth of Escherichia coli expressing NDM1 assessed as cell growth level. It is filed as organism-based.
Data set [12] relates to Escherichia coli. Nature of the data set: Effect on cell growth of Escherichia coli expressing NDM1 incubated for 16 to 18 hrs by CLSI protocol based method. It is filed as organism-based.
Data set [13] deals with HeLa. Nature of the data set: Cytotoxicity in human HeLa cells assessed as inhibition of cell growth at 0.1% incubated for 24 hrs by calcein AM and propidium iodide staining based fluorescence microscopy. It is filed as functional.
Data set [14] has as its target Beta-lactamase NDM-1 (Escherichia coli) (UniProt E5KIY2).
Description: Inhibition of NDM1 in Escherichia coli assessed as potentiation of meropenem-induced antibacterial activity by measuring meropenem inhibition zone at 0.1mol/L incubated for 16 to 18 hrs by CLSI protocol based disc diffusion method
For data set [15], the target named is Metallo-beta-lactamase type 2 (Klebsiella pneumoniae) (UniProt C7C422).
Data set [16] has the same target. This is another data set of the same source.
Description: Inhibition of NDM1 in Klebsiella pneumoniae clinical isolates assessed as potentiation of meropenem-induced antibacterial activity by measuring meropenem MIC at 32 ug/ml incubated for 16 to 18 hrs by broth microdilution method (Rvb = 80 ug/ml)
Data set [17] has as its target Beta-lactamase NDM-1 (Escherichia coli) (UniProt E5KIY2). The source holds these as a separate data set.
Description: Inhibition of NDM1 in Escherichia coli clinical isolates assessed as potentiation of meropenem-induced antibacterial activity by measuring meropenem MIC at 32 ug/ml incubated for 16 to 18 hrs by broth microdilution method (Rvb = 80 ug/ml)
The target is the same in data set [18]. The source holds these as a separate data set.
Data set [19] relates to Proteus mirabilis. The description is as §1. This is another data set of the same source.
In data set [20] the target is T1, Beta-lactamase NDM-1 (Escherichia coli, UniProt E5KIY2).
Description: Inhibition of NDM1 in Escherichia coli BL21 (DE3) using MEPM substrate incubated for 15 mins by UV spectroscopy
Data set [21] addresses Beta-lactamase NDM-1 (Escherichia coli) (UniProt E5KIY2). Nature of the data set: Inhibition of NDM1 in Escherichia coli assessed as potentiation of 0.125 ug/ml meropenem-induced antibacterial activity by measuring bacterial count at 32 ug/ml incubated for 3 hrs by time-dependent killing assay (reference value: […]).
Data set [22] concerns the target T1, Beta-lactamase NDM-1. This is another data set of the same source.
Description: Non-competitive inhibition of NDM1 in Escherichia coli BL21 (DE3) using MEPM substrate incubated for 15 mins by UV spectroscopy based L-B plot
For data set [23], the target named is Beta-lactamase NDM-1 (Escherichia coli) (UniProt E5KIY2). The source holds these as a separate data set.
Description: Inhibition of NDM1 in Escherichia coli clinical isolates assessed as potentiation of meropenem-induced antibacterial activity by measuring meropenem MIC at 32 ug/ml incubated for 16 to 18 hrs by broth microdilution method (Rvb = 320 ug/ml)

Regarding `S=C([S-])N1CCN(C(=S)[S-])CCN(C(=S)[S-])CC1.[Na+].[Na+].[Na+]`, the MIC in the data set with Proteus mirabilis [1] was over 16 µg/mL; with Proteus mirabilis [3], 4 µg/mL; with Citrobacter freundii [5], 0.5 µg/mL; with Proteus mirabilis [8] it was over 16 µg/mL; in the data set on Proteus mirabilis [9] it was 4 µg/mL; with Citrobacter freundii [10] it was 4 µg/mL. Moreover, in the data set on Escherichia coli [12], the MIC is over 128 µg/mL. In addition, the “inhibition zone (IZ)” value in the data set on Escherichia coli [2] stood at 15.9 mm. Also, the inhibition at 24 h, 1000 ug/ml in [4] was 20%. The Activity entry with HeLa [6] is reported as “Non-Toxic”; in the data set with HeLa [7] it was “Non-Toxic”; in the data set with Erythrocyte, “Non-Toxic”; with Escherichia coli [11] it was 90%.
For `CC(C)(C)CC(C)(C)c1ccc(OCCOCCOCCOCCOCCOCCOCCO)cc1`, the result in the data set with HeLa [13] was Active.
Compound `O=C(O)CN(CCN(CC(=O)O)CC(=O)O)CC(=O)O` returned an IZ in data set [14] of 21.7 mm.
A word on the IC50: it is the concentration needed to halve the response being measured. A high value points to a need for much substance. For orientation: Ki means the equilibrium dissociation constant of an inhibitor or competing ligand from its target. Lower therefore signals tighter binding. On to `O=C(O)CN1CCN(CC(=O)O)CCN(CC(=O)O)CC1`, for which the MIC in [15] is 1 µg/mL (≈ 3.3 µM); in the data set with Proteus mirabilis [8], 2 µg/mL; in data set [16], 2 µg/mL (≈ 6.59 µM); in the data set with Proteus mirabilis [9] it was 0.5 µg/mL; in data set [17] it was 0.125 µg/mL (≈ 0.412 µM); in [18], under 0.03 µg/mL. Further, the MIC in the data set on Proteus mirabilis [19] is 0.5 µg/mL; in the data set on Citrobacter freundii [10] it was 0.06 µg/mL; in data set [23] it was 0.125 µg/mL (≈ 0.412 µM); with Escherichia coli [12], over 128 µg/mL. The IC50 against Beta-lactamase NDM-1 [20] came to 110 nM. Further, the Activity in data set [21] was 10000 to 1e+06 CFU/mL; in the data set on Escherichia coli [11], 90%. The Ki at Beta-lactamase NDM-1 [22] was 5110 nM.
